In ChEMBL document CHEMBL3638970, “Substituted benzamide derivatives” (2015):

Columns and labels:
[1] = target: Trace amine-associated receptor 1 (Rattus norvegicus, UniProt Q923Y9); assay: (§1) Radioligand Binding Assay: HEK-293 cells stably expressing rat TAAR1 were maintained at 37 C and 5% CO2 in DMEM high glucose medium, containing fetal calf serum (10%, heat inactivated for 30 min at 56 C), penicillin/streptomycin (1%), and 375 ug/ml geneticin (Gibco). Cells were released from culture flasks using trypsin/ EDTA, harvested, washed twice with ice-cold PBS (without Ca2+ and Mg2+), pelleted at 1,000 rpm for 5 min at 4 C, frozen and stored at -80 C. Frozen pellets were suspended in 20 ml HEPES-NaOH (20 mM, pH 7.4) containing 10 mM EDTA and homogenized with a Polytron (PT 6000, Kinematica) at 14,000 rpm for 20 s. The homogenate was centrifuged at 48,000 x g for 30 min at 4 C. Subsequently, the supernatant was removed and discarded, and the pellet resuspended in 20 ml HEPES-NaOH (20 mM, pH 7.4) containing 0.1 mM EDTA using the Polytron (20 s at 14,000 rpm). This procedure was repeated and the final pellet resuspended in HEPES-NaOH containing 0.1 mM EDTA.; assay type: cell-based, HEK293
Sequence of Trace amine-associated receptor 1 (Rattus norvegicus, UniProt Q923Y9) (Q923Y9 whole entry): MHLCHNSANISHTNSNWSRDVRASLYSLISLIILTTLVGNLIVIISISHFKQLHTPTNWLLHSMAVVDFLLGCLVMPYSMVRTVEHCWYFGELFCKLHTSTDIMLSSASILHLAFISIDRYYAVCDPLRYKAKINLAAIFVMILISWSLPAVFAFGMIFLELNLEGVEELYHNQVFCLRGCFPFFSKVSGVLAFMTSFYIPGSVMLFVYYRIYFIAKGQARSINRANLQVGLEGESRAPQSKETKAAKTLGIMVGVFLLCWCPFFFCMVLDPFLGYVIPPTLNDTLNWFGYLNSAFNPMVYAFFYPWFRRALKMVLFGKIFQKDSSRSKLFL

[2] = target: Trace amine-associated receptor 1 (Mus musculus, UniProt Q923Y8); assay: as §1, with “Assay: Membrane Preparation and Radioligand Binding.” for “Assay:”, “mouse TAA 1” for “rat TAAR1”, “C02” for “CO2”, “rpm).” for “rpm). This procedure was repeated and the final pellet resuspended in HEPES-NaOH containing 0.1 mM EDTA.”; assay type: cell membranes, HEK293
Sequence of Trace amine-associated receptor 1 (Mus musculus, UniProt Q923Y8) (Q923Y8 whole entry): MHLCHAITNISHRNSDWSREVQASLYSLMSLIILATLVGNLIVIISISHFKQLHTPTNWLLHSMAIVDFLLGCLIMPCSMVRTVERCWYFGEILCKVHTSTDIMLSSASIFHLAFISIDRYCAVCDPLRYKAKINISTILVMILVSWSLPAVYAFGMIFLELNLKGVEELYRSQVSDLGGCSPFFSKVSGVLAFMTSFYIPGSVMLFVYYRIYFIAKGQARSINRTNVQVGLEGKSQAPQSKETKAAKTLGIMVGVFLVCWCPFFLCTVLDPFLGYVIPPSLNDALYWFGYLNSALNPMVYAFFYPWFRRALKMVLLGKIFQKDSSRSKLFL

SMILES | Ki [1] | Ki [2]
N#Cc1cccc(CNC(=O)Nc2ccc([C@H]3CNCCO3)cc2F)c1 | 67.9 nM | 3.1 nM
COc1ccc(C#N)cc1NC(=O)Nc1ccc([C@@H]2CNCCO2)cc1F | 5.9 nM | 4.4 nM
CCOc1ccc(C#N)cc1NC(=O)Nc1ccc([C@H]2CNCCO2)cc1F | 1.9 nM | 1.8 nM
CCOc1ccc(C#N)cc1NC(=O)Nc1ccc([C@@H]2CNCCO2)cc1F | 3.9 nM | 3.1 nM
N#Cc1ccnc(C(=O)Nc2ccc([C@@H]3CNCCO3)cc2F)c1 | 32.5 nM | 5 nM
N#Cc1cccc(C(=O)Nc2ccc([C@H]3CNCCO3)cc2F)n1 | 959 nM | 9.7 nM
O=C(Nc1ccc([C@H]2CNCCO2)c(F)c1)c1cnn(-c2ccc(OC(F)F)cc2)c1 | 0.7 nM | 0.6 nM
N#Cc1cccc(C(=O)Nc2ccc([C@@H]3CNCCO3)cc2Cl)n1 | 184 nM | 82.4 nM
N#Cc1cccc(C(=O)Nc2ccc([C@H]3CNCCO3)cc2Cl)n1 | 565 nM | 27.6 nM
N#Cc1ccc(C(=O)Nc2ccc([C@H]3CNCCO3)cc2Cl)nc1 | 154 nM | 6.3 nM
N#Cc1ccc(C(=O)Nc2ccc([C@@H]3CNCCO3)cc2Cl)nc1 | 20.2 nM | 12 nM
N#Cc1ccc(C(=O)Nc2ccc([C@H]3CNCCO3)cc2Cl)cn1 | 524 nM | 17 nM
N#Cc1ccc(C(=O)Nc2ccc([C@@H]3CNCCO3)cc2Cl)cn1 | 410 nM | 25.9 nM
N#Cc1cc(Cl)cc(C(=O)Nc2ccc([C@H]3CNCCO3)cc2F)n1 | 93.8 nM | 6.3 nM
O=C(Nc1ccc([C@H]2CNCCO2)c(F)c1)c1cnn(-c2ccnc(C(F)(F)F)n2)c1 | 3.6 nM | 8 nM
O=C(Nc1ccc([C@H]2CNCCO2)c(F)c1)c1cnn(-c2cnc(C(F)(F)F)cn2)c1 | 4 nM | 4.8 nM
